Columns and labels:
[1] = tested on: TNFα-stimulated adherent human neutrophils; test: TNFα-stimulated superoxide release of PMN adherent to fibrinogen coated surface; assay type: cell-based; conditions: for superoxide release of TNFα-stimulated adherent PMN: 300 nM combined with rolipram (100 nM), p<0.05, FIG. 5
Protocol: TNFα-stimulated superoxide release of PMN adherent to a matrix protein (fibrinogen) coated surface. Human PMN (1×10^6/ml) from Ficoll-Hypaque separation were incubated for 90 minutes in 1 ml of Hanks balanced salt solution containing 0.1% human serum albumin, cytochrome c (120 μM), and catalase (0.062 mg/ml) in the presence and absence of rhTNF (1 U/ml), WRC-0474[SHA 211] (10 nM) and rolipram (100 nM) in a tissue culture well which had been coated overnight with human fibrinogen. SOD (200 U/ml) was added to matched samples. The supernatants were iced and centrifuged (2000 g×10 minutes) to remove any remaining suspended cells, and the optical density of the supernatants were read at 550 nm against the matched SOD samples, and the nmoles of SOD-inhibitable superoxide released in 90 minutes were calculated.
Additional effects of adenosine A2A agonists on adherent human neutropbil oxidative activity. The bioactivity of test compounds WRC-0474[SHA 211], WRC-0470, WRC-0090 and WRC-0018 were evaluated according to the following method modified from Sullivan, G. W. et al., Int. J. Immunopharmacol, 17, 793-803 (1995). Neutrophils (1×10^6/ml from Ficoll-Hypaque separation were incubated for 90 minutes in 1 ml of Hanks balanced salt solution containing 0.1% human serum albumin, cytochrome c (120 μM) and catalase (0.062 mg/ml in the presence and absence of rhTNFα (1 U/ml), WRC-0474[SHA 211], WRC-0470, WRC-0090 and WRC-0018 (3-300 nM), and rolipram (100 nM) in a tissue culture well which had been coated overnight with human fibrinogen. The supernatants were iced and centrifuged (200 g×10 min) to remove any remaining suspended cells, and the optical densities of the supernatants were read at 550 nm against matched superoxide dismutase (SOD) (200 U/ml) samples. The nmoles of SOD=inhabitable superoxide released in 90 min were calculated.

[2] = tested on: neutrophils in whole blood; test: PMN oxidative activity in whole blood; assay type: cell-based
Protocol: PMN oxidative activity in whole blood. The following methods were adapted from Rothe, G. A. et al., J. Immunol. Meth., 138, 133-135 (1991). Heparinized whole blood (0.8 ml) was incubated (37°; 30 min) with adenosine deaminase (ADA, 1 U/ml), catalase (14,000 U/ml), ±dihydrorhodamine 123, ±WRC-0470 (3-300 nM), ±rolipram (300 nM) and ±TNFα (10 U/ml). The primed blood samples were stimulated with fMLP (15 min), then iced, the red blood cells lysed with FACS lysing solution (Becton-Dickinson, San Jose, Calif.), washed and the leukocytes resuspended in phosphate-buffered saline (PBS). These samples containing mixed leukocytes were gated for neutrophils by forward and side scatter and the fluorescence of 10,000 neutrophils measured in the FL1 channel of a FACScan (Beckton-Dickinson) fluorescence-activated cell sorter.

Adult wistar rats = test: Rat model of inflammation (bacterial meningitis): CSF WBC pleocytosis and blood-brain barrier permeability; assay type: in vivo
Protocol: Effects of WRC-0470 and rolipram on the extravasation of white blood cells in a rat model of inflammation. Adult wistar rats (approximately 200 g) were anesthetized with intermuscular injections of ketamine and xylazine. Bacteria meningitis (BM) was introduced via intracistemal inoculation of either E. coli strain 026:B6LPS (200 ng), cytokines (IL-1 and TNFα, or LPS plus cytokines). The animals were then infused with rolipram and/or […] over the duration of the experiment using a Harvard pump. CSF (cerebrospinal fluid) and blood was then sampled at 4 h post-inoculation and alterations in BBBP (blood-brain barrier permeability) and WBC (white blood cell) counts were determined. CSF and WBC concentrations were determined with standard hemacytometer methods. For assessment of % BBBP, rats were given an intravenous injection of 5 μCi 125I-labeled bovine serum albumin concomitant with intracistemal inoculation. Equal samples of CSF and blood were read simultaneously in a gamma counter and after subtraction of background radioactivity, % BBBP was calculated by the following formula: % BBBP=(cpm CSF/cpm blood)×100. All statistical tests were performed using Instat biostatistical software to compare the post-inoculation samples of experimental rats with the control rats. The statistical tests used to generate p-values were Student's t-test and ANOVA.

[3] = tested on: TNFα-stimulated adherent neutrophil; test: PMN degranulation (adherent cells), lysozyme release; assay type: cell-based, human; conditions: WRC-0470 300 nM with rolipram 300 nM; P=0.027
Protocol: PMN degranulation (adherent cells). The following methods were adapted from Sullivan, G. W. and G. L. Mandell, Infect. Inumun., 30, 272-280 (1980). […] The supernatant fluids with any suspended neutrophils were harvested following incubation, centrifuged (2000 ×g for 10 min) to remove any suspended cells and the cell-free supernatants frozen. Release of lysozyme, a component of neutrophil primary and secondary granules was assayed. Lysis of a suspension of Micrococcus lysodeikticus by the “cell-free supernatant” was measured by spectrophotometric analysis ([…]) to determine the amount of release of granule contents to the surrounding medium.

adherent human monocytes = test: Production of TNFα by purified human adherent monocytes; assay type: cell-based
Protocol: Production of TNFα by purified human adherent monocytes. A monocyte rich monolayer (>95% monocytes) was prepared by incubating 1 ml of the mononuclear leukocyte fraction (5×10^5/ml) from a Ficoll-Hypaque separation in wells of a 24 well tissue culture plate (1 hr; 37° C.; 5% CO2). […] The samples were incubated for 4 hr (37° C.; 5% CO2) and the supernatants harvested. Any suspended cells were removed by centrifugation and the cell-free samples frozen (−70° C.). TNFα was assayed in the cell-free supernatants by an ELISA kit (Cistron Biotechnology, Pine Brook, N.J.).

TNFα-stimulated PMN = test: TNF-stimulated PMN adherence to a fibrinogen-coated surface; assay type: cell-based, human
Protocol: PMN adherence to fibrinogen was measured as follows as adapted from Hanlon, J. Leukocyte Biol., 50, 43 (1991). Twenty-four well flat-bottomed tissue culture plates were incubated (37° C.) overnight with 0.5 ml of fibrinogen (5 mg/ml) dissolved in 1.5% NaHCO3. The plates were emptied and each well washed 2× with 1 ml of normal saline. The wells were then filled with 1 ml of HBSS-0.1% human serum albumin containing PMN (1×10^6/ml) with and without rhTNFα (1 U/ml), adenosine deaminase (ADA) (1 U/ML), WRC-0474[SHA 211] (10 nM), CGS21680 (30 nM), adenosine (100 nM) and rolipram (100 nM). The plates were incubated for 90 minutes at 37° C. in 5% CO2. Following incubation the tissue culture wells were washed free of non-adherent cells with normal saline. The adherent monolayer of PMN was lysed with 0.1% triton-X, the amount of lactic dehydrogenase (LDH) released from the monolayer assayed (LDH kit, Sigma Co., St. Louis, Mo.), and compared to a standard curve relating the LDH content to PMN numbers.

Nc1nc(N/N=C/C2CCCCC2)nc2c1ncn2[C@@H]1O[C@H](CO)[C@@H](O)[C@H]1O [WRC-0470]
superoxide release of TNFα-stimulated adherent PMN [1]: synergistically decreased superoxide release | rank of activity among the four A2A agonists, adherent PMN oxidative activity ([1]; in the presence of rolipram): most active | neutrophil oxidative activity in whole blood ([2]; 30-300 nM with rolipram 300 nM, fMLP or TNFα then fMLP): decreased neutrophil oxidative activity synergistically | oxidative activity of TNFα-primed fMLP-stimulated neutrophils in whole blood ([2]; FIG. 6): decreased oxidative activity | blood-brain barrier permeability (% BBBP) (Adult wistar rats; 1.2 μg/kg/hr, rebound effect): returned to control | blood-brain barrier permeability (% BBBP) (Adult wistar rats; 0.01-0.015 μg/kg/hr, p<0.05 as compared to control, FIG. 9): significant response | WBC migrated into the sub-arachnoid space (CSF WBC) (Adult wistar rats; WRC-0470 0.1 μg/kg/hr in combination with rolipram 0.001 μg/kg/hr, FIG. 11): 200±70 WBC/μl | WBC migrated into the sub-arachnoid space (CSF WBC) (Adult wistar rats; WRC-0470 alone (0.1 μg/kg/hr), p<0.050 vs combination): 600±308 WBCs/μl | CSF WBC pleocytosis (Adult wistar rats; infusion 0.005-1.2 μg/kg/hr, p<0.05 as compared to control, FIG. 8): inhibited pleocytosis | decrease of TNFα-stimulated adherent neutrophil degranulation [3]: 67% | endotoxin-stimulated adherent monocyte production of TNFα (adherent human monocytes; ±rolipram, P<0.050, FIGS. 7A and 7B): decreased

CCNC(=O)[C@H]1O[C@@H](n2cnc3c(N)nc(NCCc4ccc(CCC(=O)O)cc4)nc32)[C@H](O)[C@@H]1O [CGS21680]
TNF-stimulated PMN adherence (TNFα-stimulated PMN; 30 nM, in the presence of ADA, TNF control 38%, p=0.004): 30 % adhered

Cc1ccc(CCOc2nc(N)c3ncn([C@@H]4O[C@H](CO)[C@@H](O)[C@H]4O)c3n2)cc1 [WRC-0090]
superoxide release of TNFα-stimulated adherent PMN [1]: synergistically decreased superoxide release

COc1ccc(C2CNC(=O)C2)cc1OC1CCCC1 (centres unmarked) [rolipram, 4-(3-cyclopentyloxy-4-methoxyphenyl)-2-pyrrolidone, reference compound]
alterations of BBBP (Adult wistar rats; 0.002 μg/kg/hr): no significant effect | inhibition of CSF pleocytosis (Adult wistar rats; 0.01 μg/kg/hr, p<0.05, FIG. 10): 99% | alterations of BBBP (Adult wistar rats; 0.01 or 0.005 μg/kg/hr, p<0.05): significant inhibition | WBC migrated into the sub-arachnoid space (CSF WBC) (Adult wistar rats; rolipram alone (0.001 μg/kg/hr), p<0.050 vs combination): 1,670±1,273 WBC/μl

Nc1nc(OCCc2ccc3ccccc3c2)nc2c1ncn2[C@@H]1O[C@H](CO)[C@@H](O)[C@H]1O [WRC-0018]
superoxide release of TNFα-stimulated adherent PMN [1]: synergistically decreased superoxide release

Nc1ncnc2c1ncn2[C@@H]1O[C@H](CO)[C@@H](O)[C@H]1O [adenosine]
TNF-stimulated PMN adherence (TNFα-stimulated PMN; 100 nM, p=0.009 compared to TNF in the presence of ADA): 28 % adhered

Nc1nc(NCCc2ccc(O)cc2)nc2nc(-c3ccco3)nn12 [ZM241385, 4-(2-[7-amino-2-(2-furyl)[1,2,4]-triazolo[2,3a]-[1,3,5]trazinyl-amino]ethyl)-phenol, reference compound]
antagonism of the effect of WRC-0470 (300 nM) combined with rolipram (300 nM) on TNFα release from monocytes (adherent human monocytes; ZM241385 50 nM, p=0.020, FIG. 7B): significantly inhibited the effect of WRC-0470

— patent US6514949B1, “Method compositions for treating the inflammatory response” (University of Virginia Patent Foundation, priority 1994, dated 2003)
